Entries after “also recorded” stand apart in the source; their conditions may differ.
Key:
[1] = system: murine model of schizophrenia; assay: Prepulse inhibition (PPI) of the startle reflex in the PCP mouse model; format: in vivo, mice
Description: In this experimental model, a weak stimulus (74-90 dB tone) inhibited the subsequent response to a strong stimulus (120 dB tone). Reduced prepulse inhibition of the startle reflex (PPI) was taken as an index of the positive symptoms of schizophrenia (Josselyn and Vaccarino, 1998).
PPI was assessed similarly to the method described by Varty et al. In the employed model, mice were placed in a startle chamber and allowed to acclimate for 5 min. A loudspeaker produced a 65 dB background white noise or the various acoustic pre-pulse stimuli (dB): 74, 78, 82, 86, and 90 (20 ms). A 120 dB (40 ms) stimulus was given first to induce a response to startle. The response of the mouse was transduced and stored by a computer. Each test session lasted for 11 min and consisted of 5 presentations of each of the trial types presented in random order and separated by 15 second intervals. The amount of prepulse inhibition was calculated as % PPI=[1−(startle response for prepulse+pulse)/(startle response for pulse alone)]×100.
The % PPI indicates of level of disruption of the sensorimotor gating system in schizophrenia but also serves as an indicator of memory function. The % PPI after administration of PCP and treatment of BCP in the PPI test also serve as an index of memory function, further supporting the function of the sensorimotor system.

[2] = system: murine model of schizophrenia; assay: Elevated Plus Maze test in the PCP mouse model; format: in vivo, mice
Description: Anxiety as measured by the paucity of time spent on the two, anxiety-provoking, open arms (as opposed to the two enclosed arms) of an “Elevated Plus Maze” was used as a parameter of negative symptoms of schizophrenia (Josselyn and Vaccarino, 1998). The plus maze was elevated 50 cm above the table top. Behavior of each mouse was recorded for 5 min by a video camera and scored using the “EthoVision” software (Noldus Information Technology, Wageningen, The Netherlands), measuring the number of entries as well as the amount of time spent in each arm, open or closed. Increased time spent in the closed arms indicated increased anxiety. Increased time spent in the opened arms indicated anxiolytic behavior (reduced stress).

[3] = system: murine model of schizophrenia; assay: PhenoTyper cage behaviour in the PCP mouse model; format: in vivo, mice; settings: BCP 5 mg/kg PND 43-61
[4] = system: murine model of schizophrenia; assay: Forced-swimming test in the PCP mouse model; format: in vivo, mice; settings: PND 83; postnatal PCP 5 mg/kg; oral BCP 10 mg/kg twice a week, PND 43-62
Description: (§1) BCP was diluted in canola oil. BCP (10 mg/kg diluted in canola oil) was administered to adolescent mice (PND 43-62) by gavage twice a week (on Sunday and Wednesday) for 3 weeks, a total of 6 gavages. Control group and PCP-induced group received by gavage the oil vehicle.
Training was conducted for 6 min a day before the test. Each mouse was placed into a transparent glass cylinder filled with fresh water at 25° C. On the test day, the total duration/frequency of immobility and climbing was counted every 2 minutes for 6 minutes. An increased immobility is an index of learning and habituation, therefore a positive behavioral adaptation with a stressful condition.

[5] = system: murine model of schizophrenia; assay: Social interaction test in a novel environment, PCP mouse model; format: in vivo, mice; settings: PND 88-89; postnatal PCP 5 mg/kg; oral BCP 10 mg/kg twice a week, PND 43-62
Description: as §1
Each mouse was placed in a novel cage together with a nonaggressive intruder mouse of the same species, same sex and a similar age. The interaction between the two mice was recorded for 10 minutes with EthoVision software (Noldus). Social interaction was defined by contact between the mice (tracking nose point). Reduced duration of contact behavior indicates on impairment in social interaction.

[6] = biological target: CYP2D6 (Homo sapiens, UniProt P10635); assay: CYP450 enzymatic metabolism in human liver microsomes
Chain of CYP2D6 (P10635 whole entry): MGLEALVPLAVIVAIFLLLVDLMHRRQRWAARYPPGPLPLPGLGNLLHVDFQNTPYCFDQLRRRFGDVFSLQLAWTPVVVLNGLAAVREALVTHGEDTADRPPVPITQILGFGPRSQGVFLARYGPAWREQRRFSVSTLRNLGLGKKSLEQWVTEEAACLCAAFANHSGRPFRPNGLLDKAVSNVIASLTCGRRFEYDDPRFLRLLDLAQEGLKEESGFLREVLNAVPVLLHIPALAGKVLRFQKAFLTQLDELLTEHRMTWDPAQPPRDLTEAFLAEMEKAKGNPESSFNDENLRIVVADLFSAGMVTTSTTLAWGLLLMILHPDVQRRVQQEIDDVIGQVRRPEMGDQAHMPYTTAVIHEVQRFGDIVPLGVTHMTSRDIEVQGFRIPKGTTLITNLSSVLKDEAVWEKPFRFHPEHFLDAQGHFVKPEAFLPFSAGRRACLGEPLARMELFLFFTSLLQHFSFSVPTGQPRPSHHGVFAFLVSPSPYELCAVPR
Description: CYP450 dependent activities were determined using a known substrate. […] A known inhibitor, such as quinidine, tested at a single concentration 3.00 μM was included as positive control. Incubation mixture containing human liver microsomes (0.1 mg/mL), substrate (5 μM) and standard inhibitor or test compound were warmed at 37 C for 10 minutes. Reactions were initiated by addition of the NADPH (1 mM) and the mixture was incubated for 20 minutes at 37° C. water bath. The organic solvent in the reaction mixture was DMSO. After incubation, ice cold acetonitrile was added to terminate the reaction. Generation of metabolite from the substrate reactions was determined by LC-MS/MS and assessed based on peak area ratios of analyte/IS. Mean was used to calculate the extent of inhibition (expressed as % of control activity).

[7] = air exposed, after 5 weeks; cited from earlier work
[8] = system: murine model of schizophrenia; assay: Open-field test (ambulation, rearing, grooming) in the PCP mouse model
Description: Mice were assessed for hyperactivity behavior on postnatal day 16 (FIG. 2). Mice were placed in the center of a transparent glass cube cage 30×40 X31 cm divided into squares of 7.5×7.5 cm. The number of squares and rearing activity were counted for 8 min.
Mice were assessed for hyperactivity behavior on postnatal day 64-66. Mice were placed in the center of a transparent glass cube cage 30×40 X31 cm divided into squares of 7.5×7.5 cm. The number of squares and rearing activity were counted for 8 min.

[9] = PND 68, no PCP, BCP 5 mg/kg PND 43-61
[10] = PND 68, postnatal PCP, BCP 5 mg/kg PND 43-61
[11] = PND 106, postnatal PCP, BCP 5 mg/kg PND 43-61
[12] = age 8 weeks, postnatal BCP 10 mg/kg 1 h after PCP
[13] = age 13 weeks, postnatal BCP 10 mg/kg 1 h after PCP
[14] = PND 91, females and males, postnatal PCP
[15] = PND 17, BCP 10 mg/kg 1 h after PCP, ethanol-based vehicle
[16] = PND 35-37, postnatal BCP 10 mg/kg 1 h after PCP

Substance: trans-(1R,9S)-8-methylene-4,11,11trimethylbicyclo[7.2.0]undec-4-ene [BCP]
- pre-pulse inhibition in saline-treated mice [1, 9]: no substantial effect on saline-treated mice
- response to pre-pulse tones in saline-treated mice [1, 9]: no effect on saline-treated mice
- response to pre-pulse tones [1, 10]: significantly reversed the effect of PCP on response to pre-pulse tones; also recorded: reversed the effect of PCP on the response to tone
- startle response at the end of the PPI test [1, 10]: did not affect the response to startle at the end of the PPI test
- startle response, females [1, 10]: significantly reversed the effect of PCP on startle response in females
- startle response, males [1, 10]: no difference in the response to the startle stimuli between groups
- pre-pulse inhibition (% PPI) ([1]; PND 68, postnatal PCP, BCP 5 mg/kg injected twice a week PND 43-61): significantly reversed the effect of PCP on pre-pulse inhibition; also recorded: reversed the effect of PCP on PPI
- % pre-pulse inhibition (PPI) [1, 11]: reversed the effect of PCP on the % pre-pulse inhibition (PPI); also recorded: reversed the effect of PCP on attention at PND106 (PPI test)
- response to the startle stimuli (120 dB) [1, 11]: no difference in the response to the startle stimuli (120 dB) between groups
- response to tones [1, 11]: reversed the effect of PCP on the response to tones
- response to startle stimuli ([1]; age 8 weeks, males and females, postnatal BCP 10 mg/kg 1 h after PCP): not significantly different between groups
- % prepulse inhibition, females [1, 12]: No significant difference
- % prepulse inhibition, males [1, 12]: reversed this effect; also recorded: significantly reversed the effect of PCP on the sensorimotor-gate in males
- plus maze open/close or open/(close+open) duration and frequency ([2]; PND 64, postnatal PCP, BCP 5 mg/kg PND 43-61): no effect at age 64; also recorded: did not reverse the effects of PCP in plus maze test
- behavior in the open arm of the Elevated Plus Maze ([2]; PND 110, postnatal PCP, BCP 5 mg/kg PND 43-61): significantly reversed the effects of PCP on behavior in the open arm of the Elevated Plus Maze
- time spent in closed arm or open arm ([2]; age 13 weeks, females and males, postnatal BCP 10 mg/kg 1 h after PCP): no significant change in the time spent in the closed arm or open arm
- time spent in distal end of the opened arm, females [2, 13]: reversed this effect
- time spent in distal end of the opened arm, males [2, 13]: reversed this effect
- behavior in the close arm of the Elevated Plus Maze ([2]; age 64 days, postnatal PCP, BCP 5 mg/kg PND 43-61): significantly reversed the effects of PCP on behavior in the close arm of the Elevated Plus Maze
- frequency of entries to the wheel [3, 14]: reversed the effects of PCP on the frequency of entries to the wheel in the Phenotyper cage both in females and males
- time spent in the Hidden Zone [3, 14]: reversed the effects of PCP on the time spend in the Hidden Zone of PhenoTyper cage in females and males; also recorded: reversed the effects of PCP on the time spent in the hidden zone
- time spent at the drinking zone ([3]; PND 91, compared with PCP-treated group): appeared to reduce the time spend at the drinking zone
- frequency of entries to the Hidden Zone, males ([3]; PND 91, postnatal PCP): reversed the effect of PCP in males
- time spent in the food zone ([3]; PND 91, postnatal PCP): did not affect the time spend in the food zone
- frequency of entries to the Wheel Zone ([3]; PND 105, postnatal PCP): appeared to reduce the effect of PCP on the frequency of entries to the Wheel Zone
- frequency of entries to the hidden zone ([3]; PND 105, postnatal PCP): reversed the effects of PCP on the frequency of entries to the hidden zone; also recorded: reversed the effect of PCP on frequency of entries to hidden zone
- time spent at the hidden zone ([3]; PND 105, postnatal PCP): reversed the effects of PCP on the time spend at the hidden zone; also recorded: reversed the effect of PCP on time spent at the hidden zone
- time spent in the wheel zone ([3]; PND 105, postnatal PCP): showed a trend to reverse the effect of PCP on the time spend in the wheel; also recorded: not the time spent in the wheel zone
- duration of immobility in the forced swim test, male mice [4]: reversed the effect of 5 mg/kg PCP on the duration of immobility of male mice in the forced swim test; also recorded: reversed the effect of PCP on mice in the open field test (29A) and in the forced swim test
- social interaction, male mice [5]: reversed the effect of 5 mg/kg PCP on social interaction of male mice in the social interaction test
- risperidone-induced inhibition of CYP2D6 in the presence of BCP ([6]; BCP combined with risperidone at a fixed concentration equivalent to IC50, human liver microsomes): significantly reduced the risperidone-induced inhibition of CYP2D6; also recorded: blocked the effect of risperidone and restored the activity of CYP2D6 enzyme
- inhibitory effect on CYP2D6 ([6]; human liver microsomes): 0-20 % inhibition
- inhibition of CYP2D6 enzymatic activity ([6]; human liver microsomes 0.1 mg/mL, 20 min, 37 C): slightly inhibited CYP2D6
- original compound consumed by autoxidation [7]: ~50%
- open-field rearing and exploration ([8]; PND 17, male mice, BCP 10 mg/kg 1 h after each PCP 5 mg/kg injection (Cremophor EL:DMSO:saline)): reversed the effects of PCP on rearing and exploration
- open-field ambulation and rearing ([8]; PND 17, males, BCP 10 mg/kg 1 h after PCP, DMSO-based carrier): completely reversed the effects of PCP on ambulation
- open-field ambulation and rearing, females [8, 15]: reversed a proportion of the effects of PCP on ambulation and rearing behavior of female mice
- open-field locomotor activity, males [8, 15]: appeared to be less sensitive to the treatment of PCP or PCP+BCP
- open-field rearing and exploration [8, 15]: reversed the effects of PCP on rearing and exploration
- open-field locomotor activity (ambulation), males [8, 16]: reduced locomotor activity; also recorded: significantly reversed the effect of PCP in males
- open-field rearing and exploration, females [8, 16]: no differences in rearing and exploration behaviors were seen between the different groups
- open-field rearing, males [8, 16]: significantly reduced rearing behavior as compared to vehicle and PCP-treated groups
- open-field rearing ([8]; PND 63, females and males, postnatal PCP, BCP 5 mg/kg injected twice a week PND 43-61): reversed the effect of PCP on rearing in both females and males
- open-field ambulation ([8]; PND 63, male and female, postnatal PCP, BCP 5 mg/kg injected twice a week PND 43-61): significantly reversed the effect of postnatal treatment of PCP on ambulation in male and female mice at PND 63
- open-field exploration compared with saline-treated mice ([8]; PND 63, BCP 5 mg/kg injected twice a week PND 43-61): significantly inhibited the exploration of mice compared with saline-treated mice
- open-field exploratory behavior, females ([8]; PND 104 (last BCP treatment PND 61), postnatal PCP, BCP 5 mg/kg PND 43-61): relapse in exploratory behavior was evident
- self-grooming (total, without stimuli) ([8]; PND 104, females or males, postnatal PCP, BCP 5 mg/kg PND 43-61): did not reverse the effect of PCP on self-grooming; also recorded: did not reverse the effect of PCT on grooming at PND104
- open-field rearing (and exploration), males ([8]; PND 104, postnatal PCP, BCP 5 mg/kg PND 43-61): still significantly higher than that of PCP-treated mice with no BCP treatment; also recorded: improved exploration and rearing behaviors of male PCP treated mice at PND 104
- activity in the open field test, female mice ([8]; postnatal PCP 5 mg/kg, BCP 10 mg/kg in canola oil by gavage twice a week, PND 43-62): reversed the effect of 5 mg/kg PCP on activity of female mice in the open field test
